From ChEMBL document CHEMBL5634090, “Design of phenothiazine-based cationic amphiphilic derivatives incorporating arginine residues: Potential membrane-active broad-spectrum antimicrobials combating pathogenic bacteria in vitro and in vivo” (Eur J Med Chem, 2023)
≈ marks a conversion by molar mass, not a printed value.

Assays:
Klebsiella pneumoniae [1] = assay: Inhibition of biofilm formation in Klebsiella pneumoniae ATCC 10031 at 0.78 ug/ml by crystal violet staining assay relative to control; format: functional
[2] = Hemolytic activity in rabbit erythrocytes; format: toxicity, cell-based, Oryctolagus cuniculus, Erythrocyte
Klebsiella pneumoniae [3] = assay: Antibacterial activity against Klebsiella pneumoniae ATCC 10031 in presence of 2.5 mmol/L Ca2+ by broth microdilution method; format: functional
Staphylococcus aureus [4] = assay: Antibiofilm activity against 24 hrs preformed biofilm in Staphylococcus aureus ATCC 29213 assessed as reduction in biofilm viability at 12.5 ug/ml relative to control; format: functional; conditions: dose 12.5 µg/ml
Staphylococcus aureus [5] = assay: Inhibition of biofilm formation in Staphylococcus aureus ATCC 29213 at 0.78 ug/ml by crystal violet staining assay relative to control; format: functional
[6] = Selectivity index, ratio of CC50 for cytotoxicity against mouse NCTC clone 929 cells to MIC for antibacterial activity against Pseudomonas aeruginosa ATCC 9027; format: toxicity, cell-based; conditions: read-out: Selectivity Index
Klebsiella pneumoniae [7] = assay: Antibacterial activity against Klebsiella pneumoniae ATCC 10031 in presence of 19 umol/L Zn2+ by broth microdilution method; format: functional
Staphylococcus aureus [8] = assay: Antibacterial activity against methicillin resistant Staphylococcus aureus NCTC 10442 in presence of 2.5 mmol/L Ca2+ by broth microdilution method; format: functional
Klebsiella pneumoniae [9] = assay: Antibiofilm activity against 24 hrs preformed biofilm in Klebsiella pneumoniae ATCC 10031 assessed as reduction in biofilm viability at 12.5 ug/ml relative to control; format: functional; conditions: dose 12.5 µg/ml
[10] = Cytotoxicity against HEK293 cells assessed as cell survival rate at 6.25 ug/ml by CCK-8 assay relative to control; format: toxicity, cell-based; conditions: human, at 6.25 µg/mL, read-out: Activity
Escherichia coli [11] = assay: Antibacterial activity against Escherichia coli ATCC 25922 in presence of 4.5 mmol/L K+ by broth microdilution method; format: functional
Staphylococcus aureus [12] = assay: Antibacterial activity against Staphylococcus aureus ATCC 29213 infected in cyclophosphamide immunosuppressed keratitis mouse model assessed as log reduction in number of viable bacterial colonies at 10 mg/ml administrated tropically; format: functional
Staphylococcus aureus [13] = assay: Antibiofilm activity against 24 hrs preformed biofilm in Staphylococcus aureus ATCC 29213 assessed as reduction in biofilm viability at 0.39 ug/ml relative to control; format: functional; conditions: dose 0.39 µg/ml
Pseudomonas aeruginosa [14] = assay: Antibacterial activity against Pseudomonas aeruginosa ATCC 9027 by microbroth dilution assay; format: functional
Staphylococcus aureus [15] = assay: Antibacterial activity against methicillin resistant Staphylococcus aureus NCTC 10442 in presence of 20 umol/L Fe3+ by broth microdilution method; format: functional
Pseudomonas aeruginosa [16] = assay: Antibacterial activity against Pseudomonas aeruginosa ATCC 9027 in presence of 19 umol/L Zn2+ by broth microdilution method; format: functional
Staphylococcus aureus [17] = assay: Inhibition of biofilm formation in Staphylococcus aureus ATCC 29213 at 3.125 ug/ml by crystal violet staining assay relative to control; format: functional
[18] = Cytotoxicity against HEK293 cells assessed as cell survival rate at 25 ug/ml by CCK-8 assay relative to control; format: toxicity, cell-based; conditions: human, at 25 µg/mL, read-out: Activity
[19] = Cytotoxicity against mouse NCTC clone 929 cells assessed as cell survival rate at 6.25 ug/ml by CCK-8 assay relative to control; format: toxicity, cell-based; conditions: NCTC clone 929 (L929) cells, at 6.25 µg/mL, read-out: Activity
[20] = Cytotoxicity against mouse NCTC clone 929 cells assessed as cell survival rate at 25 ug/ml by CCK-8 assay relative to control; format: toxicity, cell-based; conditions: NCTC clone 929 (L929) cells, at 25 µg/mL, read-out: Activity
Staphylococcus aureus [21] = assay: Antibiofilm activity against 24 hrs preformed biofilm in Staphylococcus aureus ATCC 29213 assessed as reduction in biofilm viability at 6.25 ug/ml relative to control; format: functional; conditions: dose 6.25 µg/ml
Staphylococcus aureus [22] = assay: Antibacterial activity against methicillin resistant Staphylococcus aureus NCTC 10442 by microbroth dilution assay; format: functional
Klebsiella pneumoniae [23] = assay: Antibacterial activity against Klebsiella pneumoniae ATCC 14581 in presence of 1 mmol/L Mg2+ by broth microdilution method; format: functional
Staphylococcus aureus [24] = assay: Inhibition of biofilm formation in Staphylococcus aureus ATCC 29213 by crystal violet staining assay; format: functional, organism-based; conditions: dose 0.39-12.5 µg/ml
[25] = Cytotoxicity against HEK293 cells assessed as cell survival rate at 3.125 ug/ml by CCK-8 assay relative to control; format: toxicity, cell-based; conditions: human, at 3.125 µg/mL, read-out: Activity
Staphylococcus aureus [26] = assay: Inhibition of biofilm formation in Staphylococcus aureus ATCC 29213 at 0.39 ug/ml by crystal violet staining assay relative to control; format: functional
[27] = Selectivity index, ratio of CC50 for cytotoxicity against HEK293 cells to MIC for antibacterial activity against Escherichia coli ATCC 25922; format: toxicity, cell-based; conditions: human, read-out: Selectivity Index
Staphylococcus aureus [28] = assay: Inhibition of biofilm formation in Staphylococcus aureus ATCC 29213 at 6.25 ug/ml by crystal violet staining assay relative to control; format: functional
[29] = Selectivity index, ratio of CC50 for cytotoxicity against HEK293 cells to MIC for antibacterial activity against Pseudomonas aeruginosa ATCC 9027; format: toxicity, cell-based; conditions: human, read-out: Selectivity Index
Escherichia coli [30] = assay: Antibacterial activity against Escherichia coli ATCC 25922 by microbroth dilution assay; format: functional
Klebsiella pneumoniae [31] = assay: Antibacterial activity against Klebsiella pneumoniae ATCC 14581 in presence of 140 mmol/L Na+ by broth microdilution method; format: functional
Escherichia coli [32] = assay: Antibacterial activity against Escherichia coli ATCC 25922 in presence of 19 umol/L Zn2+ by broth microdilution method; format: functional
Staphylococcus aureus [33] = assay: Antibacterial activity against methicillin resistant Staphylococcus aureus N315 by microbroth dilution assay; format: functional
[34] = Selectivity index, ratio of CC50 for cytotoxicity against mouse NCTC clone 929 cells to MIC for antibacterial activity against Escherichia coli ATCC 25922; format: toxicity, cell-based; conditions: read-out: Selectivity Index
Staphylococcus aureus [35] = assay: Antibacterial activity against Staphylococcus aureus ATCC 29213 assessed as cell membrane disruption by SYTOX Green assay; format: functional, organism-based
Klebsiella pneumoniae [36] = assay: Antibiofilm activity against 24 hrs preformed biofilm in Klebsiella pneumoniae ATCC 10031 assessed as reduction in biofilm viability at 3.125 ug/ml relative to control; format: functional; conditions: dose 3.125 µg/ml
Staphylococcus aureus [37] = assay: Antibacterial activity against Staphylococcus aureus ATCC 29213 in presence of 19 umol/L Zn2+ by broth microdilution method; format: functional
Staphylococcus aureus [38] = assay: Antibacterial activity against methicillin resistant Staphylococcus aureus NCTC 10442 in presence of 20 umol/L Fe2+ by broth microdilution method; format: functional
Staphylococcus aureus [39] = assay: Antibacterial activity against Staphylococcus aureus ATCC 29213 in presence of 4.5 mmol/L K+ by broth microdilution method; format: functional
Klebsiella pneumoniae [40] = assay: Antibacterial activity against Klebsiella pneumoniae ATCC 14581 in presence of 2.5 mmol/L Ca2+ by broth microdilution method; format: functional
Klebsiella pneumoniae [41] = assay: Antibacterial activity against Klebsiella pneumoniae ATCC 10031 assessed as cell membrane disruption by SYTOX Green assay; format: functional, organism-based
[42] = Selectivity index, ratio of CC50 for cytotoxicity against mouse NCTC clone 929 cells to MIC for antibacterial activity against Klebsiella pneumoniae ATCC 10031; format: toxicity, cell-based; conditions: read-out: Selectivity Index

Q: Which results are given for CCCCCCCN1c2ccccc2Sc2ccc(OCC(=O)N[C@@H](CCCNC(=N)N)C(=O)N[C@@H](CCCNC(=N)N)C(N)=O)cc21?
A: inhibition at 0.78 µg/mL (Klebsiella pneumoniae [1]): 27.1%; HC50 [2]: 281 µg/mL; MIC (Klebsiella pneumoniae [3]): 3.12 µg/mL; Activity (Staphylococcus aureus [4]): 9.12%; inhibition at 0.78 µg/mL (Staphylococcus aureus [5]): 45%; selectivity ratio [6]: 8; MIC (Klebsiella pneumoniae [7]): 6.25 µg/mL; MIC (Staphylococcus aureus [8]): 3.12 µg/mL; Activity (Klebsiella pneumoniae [9]): 5.88%; viability at 6.25 ug/ml [10]: 87.7%; MIC (Escherichia coli [11]): 3.12 µg/mL; log(activity) (Staphylococcus aureus [12]): 5.28; Activity (Staphylococcus aureus [13]): 97.35%; MIC (Pseudomonas aeruginosa [14]): 6.25 µg/mL (≈ 9.15 µM); MIC (Staphylococcus aureus [15]): 1.56 µg/mL; MIC (Pseudomonas aeruginosa [16]): 3.12 µg/mL; inhibition at 3.125 µg/mL (Staphylococcus aureus [17]): 87.2%; viability at 25 ug/ml [18]: 74.4%; viability at 6.25 ug/ml [19]: 91.2%; viability at 25 ug/ml [20]: 70.8%; Activity (Staphylococcus aureus [21]): 15.93%; MIC (Staphylococcus aureus [22]): 1.56 µg/mL (≈ 2.28 µM); MIC (Klebsiella pneumoniae [23]): 3.12 µg/mL; inhibition (Staphylococcus aureus [24]): Dose-Dependent Effect; viability at 3.125 ug/ml [25]: 95.4%; inhibition at 0.39 µg/mL (Staphylococcus aureus [26]): 5.85%; selectivity ratio [27]: 8; inhibition at 6.25 µg/mL (Staphylococcus aureus [28]): 95.1%; selectivity ratio [29]: 8; MIC (Escherichia coli [30]): 3.12 µg/mL (≈ 4.58 µM); MIC (Klebsiella pneumoniae [31]): 3.12 µg/mL; MIC (Escherichia coli [32]): 3.12 µg/mL; MIC (Staphylococcus aureus [33]): 1.56 µg/mL (≈ 2.28 µM); selectivity ratio [34]: 8; Activity (Staphylococcus aureus [35]): Dose-Dependent Effect; Activity (Klebsiella pneumoniae [36]): 34.26%; MIC (Staphylococcus aureus [37]): 1.56 µg/mL; MIC (Staphylococcus aureus [38]): 1.56 µg/mL; MIC (Staphylococcus aureus [39]): 1.56 µg/mL; MIC (Klebsiella pneumoniae [40]): 3.12 µg/mL; Activity (Klebsiella pneumoniae [41]): Dose-Dependent Effect; selectivity ratio [42]: 8
